Reference: US8192962B2, “Processes for detecting toxic substances” (Daikin Industries, Ltd., priority 2001, dated 2012)

Test system: Genes belonging to other category
Assay: DNA chip mRNA expression in yeast, genes belonging to other category (Table 9)
Format: cell-based, Saccharomyces cerevisiae S288C
Summary of the method: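 Value is the scanned fluorescence intensity ratio of exposed versus chemical-free cells. Log-phase S288C yeast in YPD at 25° C. received one toxic substance for two hours, dosed to slow growth without killing; Cy3/Cy5-labeled cDNA from oligo-dT-purified mRNA was hybridized to a whole-genome chip at 65° C.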

SMILES: O=[N+]([O-])c1cc[n+]([O-])c2ccccc12 [(5), 4-nitroquinolin-N-oxide]
- The level of expressed mRNA in the presence of chemical substance/The level of expressed mRNA in the absence of chemical substance (yeast gene YAL055W): 1.4
- The level of expressed mRNA in the presence of chemical substance/The level of expressed mRNA in the absence of chemical substance (yeast gene YAR009C): 1.4
- The level of expressed mRNA in the presence of chemical substance/The level of expressed mRNA in the absence of chemical substance (yeast gene YAR010C): 1.0
- The level of expressed mRNA in the presence of chemical substance/The level of expressed mRNA in the absence of chemical substance (yeast gene YAR062W): 1.0
- The level of expressed mRNA in the presence of chemical substance/The level of expressed mRNA in the absence of chemical substance (yeast gene YBL005W-A): 1.3
- The level of expressed mRNA in the presence of chemical substance/The level of expressed mRNA in the absence of chemical substance (yeast gene YBL041W): 1.6
- The level of expressed mRNA in the presence of chemical substance/The level of expressed mRNA in the absence of chemical substance (yeast gene YBL043W): 1.1
- The level of expressed mRNA in the presence of chemical substance/The level of expressed mRNA in the absence of chemical substance (yeast gene YBL078C): 0.7
- The level of expressed mRNA in the presence of chemical substance/The level of expressed mRNA in the absence of chemical substance (yeast gene YBL101C): 1.0
- The level of expressed mRNA in the presence of chemical substance/The level of expressed mRNA in the absence of chemical substance (yeast gene YBR009C): 1.4
- The level of expressed mRNA in the presence of chemical substance/The level of expressed mRNA in the absence of chemical substance (yeast gene YBR212W): 1.0
- The level of expressed mRNA in the presence of chemical substance/The level of expressed mRNA in the absence of chemical substance (yeast gene YBR214W): 1.1
- The level of expressed mRNA in the presence of chemical substance/The level of expressed mRNA in the absence of chemical substance (yeast gene YBR283C): 1.4
- The level of expressed mRNA in the presence of chemical substance/The level of expressed mRNA in the absence of chemical substance (yeast gene YBR290W): 1.0
- The level of expressed mRNA in the presence of chemical substance/The level of expressed mRNA in the absence of chemical substance (yeast gene YCL020W): 0.5
- The level of expressed mRNA in the presence of chemical substance/The level of expressed mRNA in the absence of chemical substance (yeast gene YCL027W): 1.2
- The level of expressed mRNA in the presence of chemical substance/The level of expressed mRNA in the absence of chemical substance (yeast gene YCR004C): 1.2
- The level of expressed mRNA in the presence of chemical substance/The level of expressed mRNA in the absence of chemical substance (yeast gene YCR039C): 1.9
- The level of expressed mRNA in the presence of chemical substance/The level of expressed mRNA in the absence of chemical substance (yeast gene YCR062W): 1.4
- The level of expressed mRNA in the presence of chemical substance/The level of expressed mRNA in the absence of chemical substance (yeast gene YCR071C): 1.2
- The level of expressed mRNA in the presence of chemical substance/The level of expressed mRNA in the absence of chemical substance (yeast gene YCR088W): 1.1
- The level of expressed mRNA in the presence of chemical substance/The level of expressed mRNA in the absence of chemical substance (yeast gene YCR096C): 2.1
- The level of expressed mRNA in the presence of chemical substance/The level of expressed mRNA in the absence of chemical substance (yeast gene YDL008W): 1.8
- The level of expressed mRNA in the presence of chemical substance/The level of expressed mRNA in the absence of chemical substance (yeast gene YDL018C): 1.8
- The level of expressed mRNA in the presence of chemical substance/The level of expressed mRNA in the absence of chemical substance (yeast gene YDL137W): 1.8
- The level of expressed mRNA in the presence of chemical substance/The level of expressed mRNA in the absence of chemical substance (yeast gene YDL192W): 1.4
- The level of expressed mRNA in the presence of chemical substance/The level of expressed mRNA in the absence of chemical substance (yeast gene YDL238C): 0.9
- The level of expressed mRNA in the presence of chemical substance/The level of expressed mRNA in the absence of chemical substance (yeast gene YDR055W): 1.7
- The level of expressed mRNA in the presence of chemical substance/The level of expressed mRNA in the absence of chemical substance (yeast gene YDR084C): 1.2
- The level of expressed mRNA in the presence of chemical substance/The level of expressed mRNA in the absence of chemical substance (yeast gene YDR085C): 0.9
- The level of expressed mRNA in the presence of chemical substance/The level of expressed mRNA in the absence of chemical substance (yeast gene YDR104C): 1.3
- The level of expressed mRNA in the presence of chemical substance/The level of expressed mRNA in the absence of chemical substance (yeast gene YDR115W): 1.4
- The level of expressed mRNA in the presence of chemical substance/The level of expressed mRNA in the absence of chemical substance (yeast gene YDR259C): 1.0
- The level of expressed mRNA in the presence of chemical substance/The level of expressed mRNA in the absence of chemical substance (yeast gene YDR315C): 0.9
- The level of expressed mRNA in the presence of chemical substance/The level of expressed mRNA in the absence of chemical substance (yeast gene YDR358W): 1.4
- The level of expressed mRNA in the presence of chemical substance/The level of expressed mRNA in the absence of chemical substance (yeast gene YDR373W): 1.8
- The level of expressed mRNA in the presence of chemical substance/The level of expressed mRNA in the absence of chemical substance (yeast gene YDR378C): 1.0
- The level of expressed mRNA in the presence of chemical substance/The level of expressed mRNA in the absence of chemical substance (yeast gene YDR388W): 0.7
- The level of expressed mRNA in the presence of chemical substance/The level of expressed mRNA in the absence of chemical substance (yeast gene YDR403W): 1.2
- The level of expressed mRNA in the presence of chemical substance/The level of expressed mRNA in the absence of chemical substance (yeast gene YDR432W): 1.6
- The level of expressed mRNA in the presence of chemical substance/The level of expressed mRNA in the absence of chemical substance (yeast gene YDR481C): 1.0
- The level of expressed mRNA in the presence of chemical substance/The level of expressed mRNA in the absence of chemical substance (yeast gene YDR510W): 0.7
- The level of expressed mRNA in the presence of chemical substance/The level of expressed mRNA in the absence of chemical substance (yeast gene YEL042W): 0.7
- The level of expressed mRNA in the presence of chemical substance/The level of expressed mRNA in the absence of chemical substance (yeast gene YEL066W): 0.8
- The level of expressed mRNA in the presence of chemical substance/The level of expressed mRNA in the absence of chemical substance (yeast gene YER009W): 1.2
- The level of expressed mRNA in the presence of chemical substance/The level of expressed mRNA in the absence of chemical substance (yeast gene YER021W): 1.4
- The level of expressed mRNA in the presence of chemical substance/The level of expressed mRNA in the absence of chemical substance (yeast gene YER025W): 1.5
- The level of expressed mRNA in the presence of chemical substance/The level of expressed mRNA in the absence of chemical substance (yeast gene YER039C): 1.5
- The level of expressed mRNA in the presence of chemical substance/The level of expressed mRNA in the absence of chemical substance (yeast gene YER094C): 1.9
- The level of expressed mRNA in the presence of chemical substance/The level of expressed mRNA in the absence of chemical substance (yeast gene YER107C): 1.3
- The level of expressed mRNA in the presence of chemical substance/The level of expressed mRNA in the absence of chemical substance (yeast gene YER130C): 1.7
- The level of expressed mRNA in the presence of chemical substance/The level of expressed mRNA in the absence of chemical substance (yeast gene YFL022C): 0.7
- The level of expressed mRNA in the presence of chemical substance/The level of expressed mRNA in the absence of chemical substance (yeast gene YFL026W): 1.4
- The level of expressed mRNA in the presence of chemical substance/The level of expressed mRNA in the absence of chemical substance (yeast gene YFL028C): 1.7
- The level of expressed mRNA in the presence of chemical substance/The level of expressed mRNA in the absence of chemical substance (yeast gene YFL043C): 1.2
- The level of expressed mRNA in the presence of chemical substance/The level of expressed mRNA in the absence of chemical substance (yeast gene YFR004W): 1.0
- The level of expressed mRNA in the presence of chemical substance/The level of expressed mRNA in the absence of chemical substance (yeast gene YGL011C): 1.8
- The level of expressed mRNA in the presence of chemical substance/The level of expressed mRNA in the absence of chemical substance (yeast gene YGL094C): 1.3
- The level of expressed mRNA in the presence of chemical substance/The level of expressed mRNA in the absence of chemical substance (yeast gene YGL158W): 1.0
- The level of expressed mRNA in the presence of chemical substance/The level of expressed mRNA in the absence of chemical substance (yeast gene YGL207W): 1.3
- The level of expressed mRNA in the presence of chemical substance/The level of expressed mRNA in the absence of chemical substance (yeast gene YGL229C): 1.0
- The level of expressed mRNA in the presence of chemical substance/The level of expressed mRNA in the absence of chemical substance (yeast gene YGR023W): 1.0
- The level of expressed mRNA in the presence of chemical substance/The level of expressed mRNA in the absence of chemical substance (yeast gene YGR120C): 1.8
- The level of expressed mRNA in the presence of chemical substance/The level of expressed mRNA in the absence of chemical substance (yeast gene YGR136W): 1.2
- The level of expressed mRNA in the presence of chemical substance/The level of expressed mRNA in the absence of chemical substance (yeast gene YGR189C): 0.7
- The level of expressed mRNA in the presence of chemical substance/The level of expressed mRNA in the absence of chemical substance (yeast gene YGR213C): 1.2
- The level of expressed mRNA in the presence of chemical substance/The level of expressed mRNA in the absence of chemical substance (yeast gene YGR253C): 2.0
- The level of expressed mRNA in the presence of chemical substance/The level of expressed mRNA in the absence of chemical substance (yeast gene YGR257C): 1.3
- The level of expressed mRNA in the presence of chemical substance/The level of expressed mRNA in the absence of chemical substance (yeast gene YGR274C): 1.8
- The level of expressed mRNA in the presence of chemical substance/The level of expressed mRNA in the absence of chemical substance (yeast gene YHR004C): 1.5
- The level of expressed mRNA in the presence of chemical substance/The level of expressed mRNA in the absence of chemical substance (yeast gene YHR027C): 1.1
- The level of expressed mRNA in the presence of chemical substance/The level of expressed mRNA in the absence of chemical substance (yeast gene YHR071W): 1.5
- The level of expressed mRNA in the presence of chemical substance/The level of expressed mRNA in the absence of chemical substance (yeast gene YHR132C): 1.0
- The level of expressed mRNA in the presence of chemical substance/The level of expressed mRNA in the absence of chemical substance (yeast gene YHR139C): 1.3
- The level of expressed mRNA in the presence of chemical substance/The level of expressed mRNA in the absence of chemical substance (yeast gene YHR142W): 1.3
